From patent publication US12384771B2, “Pleuromutilin derivative containing thiazole-pyridine benzyl quaternary ammonium salt side chain and preparation method and use thereof” (SHAANXI UNIVERSITY OF SCIENCE AND TECHNOLOGY, priority 2022, dated 2025)
Converted amounts (≈) assume the structure as drawn.

Assays:
Type in all cases: cell-based
[1] = tested on: Mycoplasma hyopneumoniae standard strain J strain (Mhp-J; NCTC 10110); assay: Anti-mycoplasma activity assay, MIC; details: Mesomycoplasma hyopneumoniae, NCTC10110
Experimental: (§1) The minimum inhibitory concentration of the pleuromutilin derivative containing thiazole-pyridine benzyl quaternary ammonium salt side chain against different mycoplasmas was tested with tiamulin as (purchased from Shanghai Yuanye Bio-Technology Co., Ltd) a positive control using a microbroth dilution method, and the antibacterial effect of the compound against different mycoplasmas was evaluated.
(§2) Experimental strains include Mycoplasma hyopneumoniae standard strain J strain (Mhp-J; NCTC 10110), Mycoplasma hyopneumoniae clinical isolate LH strain (Mhp-LH), Mycoplasma hyorhini standard strain BTS-7 strain (Mhr-BTS-7; NCTC 10130), Mycoplasma gallisepticum R strain (MG-R) and Mycoplasma synoviae WVU1853 strain (MS-WVU1853; NCTC 10124) (purchased from National Collection of Type Cultures, United Kingdom).
(§3) The specific operation steps are as follows: • (1) preparation of KM2 medium: 38.9 g of KM2 medium (purchased from Guangdong Huankai Microbial Sci. & Tech. Co., Ltd.) was weighed, added to 800 mL of distilled water, boiled and dissolved, and autoclaved at 115° C. for 20 min for later use. • (2) preparation of bacterial liquid stock: 0.5 mL of each of Mycoplasma hyopneumoniae (Mhp), Mycoplasma hyorhina (Mhr), Mycoplasma gallisepticum (MG) and Mycoplasma synoviae (MS) was taken and transferred to 4.5 mL of KM2 liquid medium, and when the colour of the medium turned yellow, each of the bacteria was sub-packaged at 0.5 mL per tube, and stored as the bacterial liquid at −70° C. • (3) determination of bacterial liquid titre (colour change unit, CCU): 96-well plate method was used to measure the bacterial liquid titre. The preserved bacterial liquid stock was taken from −70° C., melt and equilibrated to room temperature. 0.18 mL of KM2 medium was added to each well of the middle 4 rows of the 96-well plate (that is, 4 parallels), 0.02 mL of the bacterial liquid stock was taken and added to the wells of the first column, respectively, and subjected to 10-fold dilution until 10^−11. A negative control containing only KM2 medium was set (column 12). The plate was sealed and put into an incubator at 37° C., and the results were observed day by day. The highest dilution at which the colour of the medium can change was the CCU/mL of the strain. • (4) determination of MIC: the minimum inhibitory concentration of the compound against mycoplasmas was determined by a microbroth dilution method. Each drug to be tested was prepared as a stock solution with a concentration of 2560 μg/mL, and each drug stock solution was 2-fold diluted with KM2 liquid medium, and the test concentration range was 0.015-128 μg/mL (large concentration gradient) and 0.000004-0.06 μg/mL (small concentration gradient). An appropriate amount of seed bacterial liquid was taken and diluted to 10^4 CCU/mL serially according to its titre. Drugs of various dilutions were added sequentially to the 96-well plate, and then an equal amount of diluted bacterial liquid was added. 200 μL of diluted mycoplasma liquid was set as a positive control, 200 μL of KM2 liquid culture medium was set as a negative control, and a solvent control group (10 μL of drug solvent+190 μL of mycoplasma liquid) was also set. Three parallels were set for each experiment. After all the culture plates were sealed, they were allowed to culture at 37° C. and observed daily, and the final MIC values were recorded. (See FIG. 22 for the MIC determination results of the representative compound 7 against 5 mycoplasma strains)

[2] = tested on: Mycoplasma hyorhini standard strain BTS-7 strain (Mhr-BTS-7; NCTC 10130); assay: Anti-mycoplasma activity assay, MIC; details: NCTC10130
Experimental: as §1, §2, §3

[3] = tested on: Mycoplasma synoviae WVU1853 strain (MS-WVU1853; NCTC 10124); assay: Anti-mycoplasma activity assay, MIC; details: Mycoplasmopsis synoviae, NCTC10124
Experimental: as §1, §2, §3

[4] = tested on: Mycoplasma hyopneumoniae clinical isolate LH strain (Mhp-LH); assay: Anti-mycoplasma activity assay, MIC; details: Mesomycoplasma hyopneumoniae
Experimental: as §1, §2, §3

[5] = tested on: Mycoplasma gallisepticum R strain (MG-R); assay: Anti-mycoplasma activity assay, MIC; details: Mycoplasmoides gallisepticum
Experimental: as §1, §2, §3

[6] = tested on: Escherichia coli ATCC 25922; assay: MIC, microbroth dilution, standard strains; details: ATCC25922, ATCC 25922, read-out: Minimum inhibitory concentration
Experimental: (§4) The minimum inhibitory concentration (MIC) of the pleuromutilin derivative containing thiazole-pyridine benzyl quaternary ammonium salt side chain was tested with moxifloxacin as a positive control (purchased from Shanghai Macklin Biochemical Technology Co., Ltd.) using a microbroth dilution method.
(§5) Standard strains include gram-positive bacteria: Staphylococcus epidermidis ATCC 12228, Staphylococcus aureus ATCC 29213, ATCC 25923 and methicillin-resistant Staphylococcus aureus ATCC 33591; gram-negative bacteria: Salmonella ATCC 14028, Acinetobacter baumannii ATCC 19606, Escherichia coli ATCC 25922 and CMCC 44103, all the strains were purchased from the American Type Culture Collection.

[7] = tested on: Staphylococcus aureus ATCC 25923; assay: MIC, microbroth dilution, standard strains; details: ATCC25923, ATCC 25923, read-out: Minimum inhibitory concentration
Experimental: as §4, §5

[8] = tested on: Escherichia coli CMCC 44103; assay: MIC, microbroth dilution, standard strains; details: CMCC44103, CMCC 44103, read-out: Minimum inhibitory concentration
Experimental: as §4, §5

Salmonella ATCC 14028 = assay: MIC, microbroth dilution, standard strains; details: ATCC14028, ATCC 14028, read-out: Minimum inhibitory concentration
Experimental: as §4, §5

[9] = tested on: Staphylococcus epidermidis ATCC 12228; assay: MIC, microbroth dilution, standard strains; details: ATCC12228, ATCC 12228, read-out: Minimum inhibitory concentration
Experimental: as §4, §5

[10] = tested on: Acinetobacter baumannii ATCC 19606; assay: MIC, microbroth dilution, standard strains; details: ATCC19606, ATCC 19606, read-out: Minimum inhibitory concentration
Experimental: as §4, §5

[11] = tested on: methicillin-resistant Staphylococcus aureus ATCC 33591; assay: MIC, microbroth dilution, standard strains; details: ATCC33591, ATCC 33591, read-out: Minimum inhibitory concentration
Experimental: as §4, §5

[12] = tested on: Staphylococcus aureus ATCC 29213; assay: MIC, microbroth dilution, standard strains; details: ATCC29213, ATCC 29213, read-out: Minimum inhibitory concentration
Experimental: as §4, §5

**Q.** For `C=C[C@]1(C)C[C@@H](OC(=O)CSCCN(CC)CC)[C@]2(C)[C@H](C)CC[C@]3(CCC(=O)[C@H]32)[C@@H](C)[C@@H]1O` [Tiamulin, tiamulin, reference compound], which MIC [1] is on record?
**A.** Its MIC is 0.03 µg/mL (≈ 0.0608 µM).

**Q.** And the MIC [2]?
**A.** Its MIC is 0.03 µg/mL (≈ 0.0608 µM).

**Q.** What about the MIC [3] of the same compound?
**A.** Its MIC is 2 µg/mL (≈ 4.05 µM).

**Q.** And the MIC [4]?
**A.** Its MIC is 0.015 µg/mL (≈ 0.0304 µM).

**Q.** And the MIC [5]?
**A.** The MIC was 0.125 µg/mL (≈ 0.253 µM).

**Q.** What about the MIC [6] of the same compound?
**A.** The MIC was 128 µg/mL (≈ 259 µM).

**Q.** And the MIC [7]?
**A.** The MIC was 64 µg/mL (≈ 130 µM).

**Q.** What about the MIC [8] of the same compound?
**A.** Its MIC is 64 µg/mL (≈ 130 µM).

**Q.** And the MIC (Salmonella ATCC 14028)?
**A.** The MIC was 128 µg/mL (≈ 259 µM).

**Q.** What about the MIC [9] of the same compound?
**A.** The MIC was 16 µg/mL (≈ 32.4 µM).

**Q.** What about the MIC [10] of the same compound?
**A.** The MIC was 64 µg/mL (≈ 130 µM).

**Q.** What about the MIC [11] of the same compound?
**A.** Its MIC is 128 µg/mL (≈ 259 µM).

**Q.** What about the MIC [12] of the same compound?
**A.** The MIC was > 128 µg/mL.
